Key:
Format in all cases: cell-based
[1] = biological target: T1, PSEN1-APH1A γ-secretase complex (Homo sapiens, UniProt P49768); assay: Aβ40 secretion by MEF cell line expressing only PSEN1-APH1A γ-secretase (APP-C99-GFP reporter); conditions: 8 h, Beerse site unless otherwise indicated, read-out: IC50, Aβ40 peptides
T1 construct: expressed in transfected cells; host or cells: Psen1/2 double KO/Aph1ABC triple KO MEFs, pMSCV retroviral PSEN-IRES-APH1
Excerpt: (§1) Mouse embryonic fibroblast (MEF) cells deficient for the Psen and Aph1 genes (Psen1/2^−/−, Aph1ABC^−/−) were reconstituted with human PSEN1 or PSEN2 and with human APH1A or APH1B to generate four independent cell lines, each constitutively expressing exclusively one type of γ-secretase complex (Fig. S1A) ([19]). A human APP-C99-GFP reporter was introduced to enable the measurement of Aβ peptides in the conditioned media of the cells to monitor γ-secretase activity. The assay was established in a 96-well format.
(§2) Conditional Psen1/2 double KO mice were crossed with conditional Aph1ABC triple KO mice ([29], [52], [58], [59]). At embryonic day 7.5, embryos were dissected and dissociated, and cells were plated in the presence of Dulbecco’s modified Eagle’s medium (DMEM)/F12 50% fetal calf serum (FCS) (Invitrogen). Primary MEFs were immortalized by transduction with LargeT antigen. Psen1/2 double KO/Aph1ABC triple KO MEFs were generated by transduction with a Cre-GFP–expressing adenoviral vector, and GFP-positive MEFs were sorted by fluorescence-activated cell sorting analysis. Psen1/2 Aph1ABC-deficient MEFs were maintained in DMEM/f12 10% FCS. To rescue γ-secretase expression, Psen1/2 double KO/Aph1ABC triple KO MEFs were transduced using Murine Stem Cell Virus retroviral vector system (pMSCV) viral vectors (Clontech) containing the human coding sequences of the different PSEN and APH1 homologs and the zeocin selection marker. An Internal Ribosome Entry Site sequence was cloned between the coding sequences for PSEN and APH1 to ensure co-expression of both proteins. Stable transfected cell lines were selected using 500-μg/ml zeocin (Invitrogen). Four different combinations were made: PSEN1 and APH1AL, PSEN1 and APH1B, PSEN2 and APH1AL, and PSEN2 and APH1B. These cell lines were transduced with pMSCV viral vectors (Clontech) expressing APP-C99-GFP-puromycin. After puromycin selection (5 μg/ml), GFP-positive cells were selected through FACS sorting. For the alanine mutagenesis experiment, pMSCV PSEN1-APH1A viral vectors were generated by using a long PCR-based QuikChange strategy (Stratagene). Stable cell lines without clonal selection were generated for each mutant as described above. All cell lines were regularly tested for the absence of mycoplasma and used for maximum 20 passages in culture.
(§3) The number of plated cells and incubation times were determined in respect to linearity of Aβ peptide secretion, the dynamic range of Aβ peptide quantification in the medium, and sensitivity to dimethylsulfoxide (DMSO). […] The cell viability was assessed using the CellTiter-Glo Luminescent assay (Promega) that measures ATP production. […]

[2] = biological target: T2, PSEN1-APH1B γ-secretase complex (Homo sapiens, UniProt P49768); assay: Aβ40 secretion by MEF cell line expressing only PSEN1-APH1B γ-secretase (APP-C99-GFP reporter); conditions: 8 h, Beerse site unless otherwise indicated, read-out: IC50, Aβ40 peptides
T2 construct: expressed in transfected cells; host or cells: Psen1/2 double KO/Aph1ABC triple KO MEFs, pMSCV retroviral PSEN-IRES-APH1
Excerpt: as §1, §2
(§4) The number of plated cells and incubation times were determined in respect to linearity of Aβ peptide secretion, the dynamic range of Aβ peptide quantification in the medium, and sensitivity to dimethylsulfoxide (DMSO). […] MEF cells were plated in DMEM F12 supplemented with 10% FCS at 10,000 cells per well in 96-well clear bottom plates in the late afternoon and cultured for 16 h at 37 °C, 5% CO2. In the morning of the second day, the medium was replaced with 60 μl of DMEM/F12 supplemented with 2% FCS, and GSI or DMSO (controls) were added. Compounds were tested in serial dilutions with concentrations ranging from […] to 0.1 nM with 3-fold changes. The final concentration of DMSO in all wells was 0.2%. Plates were put in the incubator again at 37 °C, 5% CO2. After 8 h, the culture media were collected, and 30 μl was used to measure Aβ40 peptides. The cell viability was assessed using the CellTiter-Glo Luminescent assay (Promega) that measures ATP production. All screens were performed at one site, and reported IC50 values throughout the manuscript are from this site (Beerse) unless otherwise indicated.
Standard 96-well SECTOR plates (MSD) were coated with 1.5 μg/ml anti-Aβ JRFcAβ40/28 capture antibody in a final volume of 50 μl of PBS 0.05% Tween 20.

[3] = biological target: T3, PSEN2-APH1A γ-secretase complex (Homo sapiens, UniProt P49810+Q92542+Q96BI3+Q9NZ42); assay: Aβ40 secretion by MEF cell line expressing only PSEN2-APH1A γ-secretase (APP-C99-GFP reporter); conditions: 8 h, Beerse site unless otherwise indicated, read-out: IC50, Aβ40 peptides
T3 construct: expressed in transfected cells; host or cells: Psen1/2 double KO/Aph1ABC triple KO MEFs, pMSCV retroviral PSEN-IRES-APH1
Excerpt: as §1
as §2, with “Four different combinations were made: PSEN1 and APH1AL, PSEN1 and APH1B, PSEN2 and APH1AL, and PSEN2 and APH1B. These cell lines were transduced with pMSCV viral vectors (Clontech) expressing APP-C99-GFP-puromycin. After puromycin selection (5 μg/ml), GFP-positive cells were selected through FACS sorting. For the alanine mutagenesis experiment, pMSCV PSEN1-APH1A viral vectors were generated by using a long PCR-based QuikChange strategy (Stratagene). Stable cell lines without clonal selection were generated for each mutant as described above. All cell lines were regularly tested for the absence of mycoplasma and used for maximum 20 passages in culture.” left out
as §3

[4] = biological target: T4, PSEN1 W165A–APH1A γ-secretase complex (Homo sapiens, UniProt P49768+Q92542+Q96BI3+Q9NZ42, W165A); assay: Aβ40 secretion, MEF cell pool restored with PSEN1 W165A–APH1A; conditions: PSEN1 W165A (TM3)–APH1A cell pool; N = 3 to 4; mean (95% CI); decimal comma
T4 construct: expressed in transfected cells; host or cells: Psen1/2 double KO/Aph1ABC triple KO MEFs, pools without clonal selection
Experimental: (§5) We turned to experimental site–directed mutagenesis and selected a series of amino acids (Fig. 3) in the entrance channel for mutation to alanine. […] More importantly, they were all enzymatically active as shown by the secretion of Aβ40 in the supernatants of the cell cultures (Fig. 3B).
as §2, with “After puromycin selection (5 μg/ml), GFP-positive cells were selected through FACS sorting. For the alanine mutagenesis experiment, pMSCV PSEN1-APH1A viral vectors were generated by using a long PCR-based QuikChange strategy (Stratagene). Stable cell lines without clonal selection were generated for each mutant as described above. All cell lines were regularly tested for the absence of mycoplasma and used for maximum 20 passages in culture.” left out
The number of plated cells and incubation times were determined in respect to linearity of Aβ peptide secretion, the dynamic range of Aβ peptide quantification in the medium, and sensitivity to dimethylsulfoxide (DMSO). […] The cell viability was assessed using the CellTiter-Glo Luminescent assay (Promega) that measures ATP production. […] We however measured five compounds at the Leuven site and noticed that absolute IC50 values were different (Fig. S2). […]

[5] = biological target: T5, PSEN1 L172A–APH1A γ-secretase complex (Homo sapiens, UniProt P49768, L172A); assay: Aβ40 secretion, MEF cell pool restored with PSEN1 L172A–APH1A; conditions: for increase in binding affinity by alanine substitution of L172: PSEN1 L172A versus WT
T5 construct: expressed in transfected cells; host or cells: Psen1/2 double KO/Aph1ABC triple KO MEFs, pools without clonal selection
Experimental: as §5, §2
as §4, with “indicated. We however measured five compounds at the Leuven site and noticed that absolute IC50 values were different (Fig. S2). The main goal of the current work is to explore the basis for inhibitor selectivity for different γ-secretases, and selectivity was consistent in the assays at the two sites (Fig. S2).” for “indicated.”
Standard 96-well SECTOR plates (MSD) were coated with 1.5 μg/ml anti-Aβ JRFcAβ40/28 capture antibody in a final volume of 50 μl of PBS 0.05% Tween 20. After overnight incubation at 4 °C, the plates were five times rinsed with PBS 0.05% Tween 20 and blocked with 150 μl per well of casein buffer (PBS with 1% casein, pH 7.4) for 4 h at room temperature. Standards (synthetic human Aβ 1–40) were diluted in culture media. […]

SMILES	IC50 [1] [nM]	IC50 [2] [nM]	IC50 [3] [nM]	IC50 [4] [µM]	increase in binding affinity by alanine substitution of L172 [5] [fold]	IC50 ([5]; PSEN1 L172A (TM3)–APH1A cell pool, N = 3 to 4, mean (95% CI), decimal comma) [µM]
O=S(=O)(c1ccc(Cl)cc1)N1[C@H]2CC[C@@H]([C@H]1c1ccc(C(F)(F)F)cc1)[C@@H](O)C2 [(+)-9b]	22	6	1670	0.102	3.1	–
C[C@H](NC(=O)Cc1cc(F)cc(F)c1)C(=O)N[C@H](C(=O)OC(C)(C)C)c1ccccc1 [DAPT]	–	–	–	–	47	0.0036

— article PMC10318456, “Selective inhibitors of the PSEN1–gamma-secretase complex” (The Journal of Biological Chemistry, 2023)
